# Measurements taken from patent US20150087627A1, “COMBINATION OF KINASE INHIBITORS AND USES THEREOF” (Intellikine LLC, priority 2011, published 2015).
# Where two headings read alike, the source gives them in different places.
# Columns and labels:
# PI3K α (p110α/p85α) = biological target: T1, PI3K α (p110α/p85α) (Homo sapiens, UniProt P42336); experiment: PI 3-Kinase (human) HTRF assay, PI3K α; format: biochemical
# T1 construct: purchased Upstate / Millipore Corporation
# PI3K β (p110β/p85α) = biological target: T2, PI3K β (p110β/p85α) (Homo sapiens, UniProt P42338); experiment: PI 3-Kinase (human) HTRF assay, PI3K β; format: biochemical
# T2 construct: purchased Upstate / Millipore Corporation
# PI3K γ (p110γ) = biological target: T3, PI3K γ (p110γ) (Homo sapiens, UniProt P48736); experiment: PI 3-Kinase (human) HTRF assay, PI3K γ; format: biochemical
# T3 construct: purchased Upstate / Millipore Corporation
# PI3K δ = biological target: T4, PI3K δ (Homo sapiens, UniProt O00329); experiment: PI 3-Kinase (human) HTRF assay, PI3K δ; format: biochemical; settings: read-out: PI3K δ IC50
# T4 construct: purchased Upstate / Millipore Corporation
# T47D = T47D proliferation; format: cell-based; settings: Homo sapiens; T47D cell line
# mTOR = biological target: T5, mTOR (Homo sapiens, UniProt P42345); experiment: mTOR kinase inhibition assay (radiometric or LanthaScreen TR-FRET); format: biochemical; settings: read-out: mTORC IC50
# T5 construct: purchased Invitrogen
# Procedure: The cross-activity or lack thereof of one or more compounds of the present invention against mTor can be measured according to any procedures known in the art or methods disclosed below.
# The compounds described herein can be tested against recombinant mTOR (Invitrogen) in an assay containing 50 mM HEPES, pH 7.5, 1 mM EGTA, 10 mM MgCl2, 2.5 mM, 0.01% Tween, 10 μM ATP (2.5 μCi of μ-32P-ATP), and 3 μg/mL BSA. Rat recombinant PHAS-1/4EBP1 (Calbiochem; 2 mg/mL) is used as a substrate. Reactions are terminated by spotting onto nitrocellulose, which is washed with 1M NaCl/1% phosphoric acid (approximately 6 times, 5-10 minutes each). Sheets are dried and the transferred radioactivity quantitated by phosphorimaging.
# For instance, one can use Invitrogen's LanthaScreen™ Kinase assay to test the inhibitors of mTOR disclosed herein. This assay is a time resolved FRET platform that measures the phosphorylation of GFP labeled 4EBP1 by mTOR kinase. The kinase reaction is performed in a white 384 well microtiter plate. The total reaction volume is 20 ul per well and the reaction buffer composition is 50 mM HEPES pH7.5, 0.01% Polysorbate 20, 1 mM EGTA, 10 mM MnCl2, and 2 mM DTT. In the first step, each well receives 2 ul of test compound in 20% dimethylsulphoxide resulting in a 2% DMSO final concentration. […] The plate is sealed and incubated for 1 hour at room temperature. […] The plate is sealed, incubated for 1 hour at room temperature, and then read on a plate reader set up for LanthaScreen™ TR-FRET. Data is analyzed and IC50s are generated using GraphPad Prism 5.
# MDA-MB-361 = MDA-MB-361 proliferation; format: cell-based
# PC3 = PC3 proliferation; format: cell-based; settings: Homo sapiens, PC-3
# [1] = Table 2 (mTor inhibitor compounds), PC3, read-out: PC3 proliferation
# [2] = Table 4 (PI3K α inhibitors), read-out: PI3K α IC50
# [3] = Table 4 (PI3K α inhibitors), read-out: PI3K β IC50
# [4] = Table 4 (PI3K α inhibitors), read-out: PI3K γ IC50
# [5] = PC3 cell line (compounds before 438), read-out: PC3 proliferation (nM)*
# T4 sequence (O00329 whole entry): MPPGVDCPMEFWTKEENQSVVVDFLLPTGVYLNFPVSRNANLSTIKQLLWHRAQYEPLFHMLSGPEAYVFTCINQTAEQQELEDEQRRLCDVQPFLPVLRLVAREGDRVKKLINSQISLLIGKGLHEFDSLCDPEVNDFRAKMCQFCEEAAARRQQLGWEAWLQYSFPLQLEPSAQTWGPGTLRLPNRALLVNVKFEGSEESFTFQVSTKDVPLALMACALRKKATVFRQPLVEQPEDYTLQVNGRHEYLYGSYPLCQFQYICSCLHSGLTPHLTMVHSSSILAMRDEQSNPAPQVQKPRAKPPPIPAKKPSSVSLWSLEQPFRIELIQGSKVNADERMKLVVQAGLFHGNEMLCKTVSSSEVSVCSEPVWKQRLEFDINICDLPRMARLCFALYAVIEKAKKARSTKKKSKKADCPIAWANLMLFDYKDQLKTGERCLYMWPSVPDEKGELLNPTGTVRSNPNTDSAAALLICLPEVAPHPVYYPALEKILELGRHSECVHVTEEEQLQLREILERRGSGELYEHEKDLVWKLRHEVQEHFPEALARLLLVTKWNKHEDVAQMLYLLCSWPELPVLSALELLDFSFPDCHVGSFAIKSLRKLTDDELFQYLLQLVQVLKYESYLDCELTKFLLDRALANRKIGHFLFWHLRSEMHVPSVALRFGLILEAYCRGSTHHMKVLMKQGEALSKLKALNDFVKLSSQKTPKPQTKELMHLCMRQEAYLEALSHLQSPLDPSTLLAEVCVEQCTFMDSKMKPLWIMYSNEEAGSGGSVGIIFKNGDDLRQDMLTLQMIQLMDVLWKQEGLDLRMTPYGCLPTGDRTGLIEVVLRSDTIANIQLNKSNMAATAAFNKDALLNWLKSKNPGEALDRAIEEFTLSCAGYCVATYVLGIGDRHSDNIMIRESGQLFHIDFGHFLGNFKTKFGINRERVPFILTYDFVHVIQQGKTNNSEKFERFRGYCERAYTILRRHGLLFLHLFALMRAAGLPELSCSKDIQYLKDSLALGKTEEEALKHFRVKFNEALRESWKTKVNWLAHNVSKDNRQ
# T4 sequence (P27986 whole entry partner): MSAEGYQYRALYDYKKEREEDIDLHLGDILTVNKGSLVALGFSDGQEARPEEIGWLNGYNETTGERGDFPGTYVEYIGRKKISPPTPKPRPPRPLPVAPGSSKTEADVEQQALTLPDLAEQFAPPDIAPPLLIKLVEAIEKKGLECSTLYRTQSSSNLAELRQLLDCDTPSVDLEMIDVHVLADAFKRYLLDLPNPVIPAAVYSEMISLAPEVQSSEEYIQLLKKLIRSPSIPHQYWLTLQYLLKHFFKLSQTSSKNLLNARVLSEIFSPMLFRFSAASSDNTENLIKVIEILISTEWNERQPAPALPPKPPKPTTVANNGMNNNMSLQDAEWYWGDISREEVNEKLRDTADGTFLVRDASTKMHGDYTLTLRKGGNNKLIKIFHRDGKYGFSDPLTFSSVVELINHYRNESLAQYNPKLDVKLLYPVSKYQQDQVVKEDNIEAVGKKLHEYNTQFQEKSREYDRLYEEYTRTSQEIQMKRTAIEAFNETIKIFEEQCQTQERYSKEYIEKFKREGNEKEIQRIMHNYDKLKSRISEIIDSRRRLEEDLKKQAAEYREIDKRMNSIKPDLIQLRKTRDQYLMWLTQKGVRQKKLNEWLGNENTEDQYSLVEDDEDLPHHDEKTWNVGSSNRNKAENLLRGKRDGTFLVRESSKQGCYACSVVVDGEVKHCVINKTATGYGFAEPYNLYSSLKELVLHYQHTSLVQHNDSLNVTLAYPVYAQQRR
# T2 sequence (P42338 whole entry): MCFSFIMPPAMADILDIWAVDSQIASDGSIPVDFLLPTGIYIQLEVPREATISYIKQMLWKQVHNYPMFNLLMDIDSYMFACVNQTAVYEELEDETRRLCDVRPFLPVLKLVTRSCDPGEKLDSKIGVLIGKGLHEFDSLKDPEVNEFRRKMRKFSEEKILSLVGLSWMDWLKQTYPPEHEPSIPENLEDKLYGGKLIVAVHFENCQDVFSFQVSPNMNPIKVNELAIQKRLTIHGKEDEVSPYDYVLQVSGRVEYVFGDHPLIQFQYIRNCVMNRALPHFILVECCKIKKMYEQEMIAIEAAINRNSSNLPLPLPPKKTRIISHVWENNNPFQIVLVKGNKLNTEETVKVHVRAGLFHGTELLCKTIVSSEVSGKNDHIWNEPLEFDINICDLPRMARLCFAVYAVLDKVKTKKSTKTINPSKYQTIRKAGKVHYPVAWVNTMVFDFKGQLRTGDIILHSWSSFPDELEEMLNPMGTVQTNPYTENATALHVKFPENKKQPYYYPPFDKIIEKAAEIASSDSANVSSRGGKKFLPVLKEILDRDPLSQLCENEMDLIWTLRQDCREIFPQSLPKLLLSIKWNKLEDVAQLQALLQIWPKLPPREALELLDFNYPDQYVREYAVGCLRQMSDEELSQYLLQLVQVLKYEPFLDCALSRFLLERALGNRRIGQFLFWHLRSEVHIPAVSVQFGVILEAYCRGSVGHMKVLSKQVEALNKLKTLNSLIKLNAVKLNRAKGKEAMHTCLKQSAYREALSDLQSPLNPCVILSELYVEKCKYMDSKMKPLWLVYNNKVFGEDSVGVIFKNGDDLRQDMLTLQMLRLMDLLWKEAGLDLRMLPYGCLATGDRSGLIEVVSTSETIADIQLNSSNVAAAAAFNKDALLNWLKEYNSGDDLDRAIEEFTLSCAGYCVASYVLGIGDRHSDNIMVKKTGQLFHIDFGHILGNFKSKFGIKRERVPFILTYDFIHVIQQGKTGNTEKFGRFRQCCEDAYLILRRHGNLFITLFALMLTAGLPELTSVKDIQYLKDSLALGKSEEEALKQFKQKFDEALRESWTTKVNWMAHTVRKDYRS
# T2 sequence (P27986 whole entry partner): as the sequence (P27986 whole entry partner) above
# T1 sequence (P42336 whole entry): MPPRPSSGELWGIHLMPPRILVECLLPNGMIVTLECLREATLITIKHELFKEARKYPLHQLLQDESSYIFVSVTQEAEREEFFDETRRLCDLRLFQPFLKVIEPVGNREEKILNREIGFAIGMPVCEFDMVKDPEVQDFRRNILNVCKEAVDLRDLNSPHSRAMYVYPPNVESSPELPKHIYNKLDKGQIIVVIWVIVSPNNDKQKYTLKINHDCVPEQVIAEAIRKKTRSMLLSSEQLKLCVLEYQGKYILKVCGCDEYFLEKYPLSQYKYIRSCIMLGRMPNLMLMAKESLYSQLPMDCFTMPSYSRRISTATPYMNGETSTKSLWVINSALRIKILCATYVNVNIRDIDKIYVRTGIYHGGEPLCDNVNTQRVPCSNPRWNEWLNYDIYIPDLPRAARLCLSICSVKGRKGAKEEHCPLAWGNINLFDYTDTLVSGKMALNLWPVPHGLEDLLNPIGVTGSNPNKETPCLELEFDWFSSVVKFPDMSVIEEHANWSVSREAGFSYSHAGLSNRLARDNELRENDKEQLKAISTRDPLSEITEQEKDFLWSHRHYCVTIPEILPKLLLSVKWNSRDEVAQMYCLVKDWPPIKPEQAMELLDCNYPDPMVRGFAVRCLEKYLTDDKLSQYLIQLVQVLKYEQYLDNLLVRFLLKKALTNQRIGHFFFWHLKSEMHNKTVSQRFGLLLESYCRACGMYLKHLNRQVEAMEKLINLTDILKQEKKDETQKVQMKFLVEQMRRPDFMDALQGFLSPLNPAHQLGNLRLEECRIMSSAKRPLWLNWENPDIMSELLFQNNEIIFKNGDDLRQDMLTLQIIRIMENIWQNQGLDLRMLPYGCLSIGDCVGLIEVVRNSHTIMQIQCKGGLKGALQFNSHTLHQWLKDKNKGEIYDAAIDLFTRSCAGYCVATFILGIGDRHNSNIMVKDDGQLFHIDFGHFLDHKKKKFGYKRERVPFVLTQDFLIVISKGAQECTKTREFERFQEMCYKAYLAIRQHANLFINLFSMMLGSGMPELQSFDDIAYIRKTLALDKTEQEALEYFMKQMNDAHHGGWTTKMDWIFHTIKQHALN
# T1 sequence (P27986 whole entry partner): as the sequence (P27986 whole entry partner) above
# T3 sequence (P48736 whole entry): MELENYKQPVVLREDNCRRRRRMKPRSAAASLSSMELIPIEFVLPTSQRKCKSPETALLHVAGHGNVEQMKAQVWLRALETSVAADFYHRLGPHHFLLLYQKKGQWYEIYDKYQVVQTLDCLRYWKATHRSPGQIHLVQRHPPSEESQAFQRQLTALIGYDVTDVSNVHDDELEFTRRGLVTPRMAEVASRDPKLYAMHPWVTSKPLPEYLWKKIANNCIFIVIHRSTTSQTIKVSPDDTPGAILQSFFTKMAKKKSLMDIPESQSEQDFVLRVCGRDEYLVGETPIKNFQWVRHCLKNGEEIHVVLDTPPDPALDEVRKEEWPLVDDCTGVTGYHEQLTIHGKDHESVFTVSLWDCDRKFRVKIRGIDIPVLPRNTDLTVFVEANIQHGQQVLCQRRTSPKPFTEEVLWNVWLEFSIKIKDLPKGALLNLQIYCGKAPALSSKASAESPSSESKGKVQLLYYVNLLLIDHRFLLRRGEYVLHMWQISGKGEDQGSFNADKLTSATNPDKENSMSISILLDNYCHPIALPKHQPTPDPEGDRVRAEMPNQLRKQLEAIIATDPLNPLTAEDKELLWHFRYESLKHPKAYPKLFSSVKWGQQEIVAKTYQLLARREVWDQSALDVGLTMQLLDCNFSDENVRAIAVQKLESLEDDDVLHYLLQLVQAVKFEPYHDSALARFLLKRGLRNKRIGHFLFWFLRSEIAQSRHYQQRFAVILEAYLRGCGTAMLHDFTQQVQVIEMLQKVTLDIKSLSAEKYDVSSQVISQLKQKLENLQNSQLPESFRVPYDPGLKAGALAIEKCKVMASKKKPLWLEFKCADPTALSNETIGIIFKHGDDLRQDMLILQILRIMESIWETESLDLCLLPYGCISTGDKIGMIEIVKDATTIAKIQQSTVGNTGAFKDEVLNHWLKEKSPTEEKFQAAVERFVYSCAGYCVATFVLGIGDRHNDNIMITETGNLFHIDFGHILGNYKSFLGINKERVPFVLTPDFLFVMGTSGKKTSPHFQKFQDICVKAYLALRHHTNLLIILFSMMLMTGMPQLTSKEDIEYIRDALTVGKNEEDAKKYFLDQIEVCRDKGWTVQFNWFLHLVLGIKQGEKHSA
Structure (SMILES),IC50 (PI3K δ) [nM],IC50 (T47D) [nM],IC50 (mTOR) [nM],IC50 (PI3K α (p110α/p85α); read-out: PI3K α IC50) [nM],IC50 (PI3K γ (p110γ); read-out: PI3K γ IC50) [nM],IC50 (PI3K β (p110β/p85α); read-out: PI3K β IC50) [nM],further results
CN1CCC(N(C)c2cnc3ccc(-c4ccc5oc(N)nc5c4)cc3n2)CC1 [Compound 151],< 1000,< 10000,–,–,–,–,IC50 (PI3K α (p110α/p85α)): < 100 nM; IC50 (PI3K β (p110β/p85α); PI3K β IC50 (nM)): < 10000 nM; IC50 (PI3K γ (p110γ); PI3K γ IC50 (nM)): < 10000 nM
CN1CCC(Nc2ncnc3ccc(-c4ccc5oc(N)nc5c4)cc23)CC1 [Compound 35],< 100,< 10000,< 10000,< 100,< 100,–,–
Nc1nc2cc(-c3ccc4ncc(OC5CCOCC5)nc4c3)ccc2o1 [Compound 49],< 10000,< 10000,< 10000,< 100,< 1000,–,–
COc1ncc(-c2ccc3ncc(C(=O)N4CCOCC4)n3c2)cc1NS(=O)(=O)c1cccnc1 [Compound 462],< 100,–,–,< 100,< 100,< 100,"IC50 (MDA-MB-361; Homo sapiens, MDA-MB-361, Starting with compound 438, proliferation data was obtained using an MDA-MB-361 cell line, read-out: PC3 proliferation (nM)*): < 1000 nM"
CN1CCN(c2cnc3ccc(-c4ccc5oc(N)nc5c4)cc3n2)CC1 [Compound 65],< 10000,< 10000,> 10000,< 100,< 1000,< 100,–
CC(C)n1nc(-c2cc3ccc(C(N)=O)cc3[nH]2)c2c(N)ncnc21 [Compound 25],–,–,–,–,–,–,IC50 (PC3; [1]): > 500 nM
Nc1nc2cc(-c3ccc4ncc(N5CCCCC5)nc4c3)ccc2o1 [Compound 175],> 10000,> 10000,–,< 100,< 10000,> 10000,–
CN1CCN(c2ccc(-c3cnc4ccc(-c5ccc6oc(N)nc6c5)cn34)cn2)CC1 [Compound 42],< 1000,< 10000,> 10000,< 100,< 1000,–,–
C[C@H]1CN(C2CN(c3cnc4ccc(-c5ccc6oc(N)nc6c5)nc4n3)C2)CCN1C [Compound 606],–,–,–,–,–,–,"IC50 (mTOR; Table 4 (PI3K α inhibitors)): > 10000 nM; IC50 (PI3K α (p110α/p85α); [2]): < 100 nM; IC50 (PI3K β (p110β/p85α); [3]): < 10000 nM; IC50 (PI3K γ (p110γ); [4]): < 10000 nM; IC50 (PI3K δ; Table 4 (PI3K α inhibitors)): < 1000 nM; IC50 (MDA-MB-361; Table 4 (PI3K α inhibitors), MDA-MB-361, read-out: MDA-MB-361 proliferation (nM)*): < 1000 nM"
Cc1nc2ccc(-c3ccc4oc(N)nc4c3)nn2c1-c1ccncc1 [Compound 56],> 10000,< 10000,< 1000,< 100,< 100,< 1000,–
CN1CCC(n2cnc3ccc(-c4ccc5oc(N)nc5c4)cc3c2=O)CC1 [Compound 36],< 10000,< 10000,< 10000,< 100,> 10000,–,–
CN1CC(C(=O)N2CCC(Nc3ncnc4ccc(-c5ccc6oc(N)nc6c5)cc34)CC2)C1 [Compound 138],< 100,> 10000,–,< 100,< 1000,< 1000,–
Cn1c(=O)n(-c2ccc(C(C)(C)C#N)cc2)c2c3cc(-c4ccc5oc(N)nc5c4)ccc3ncc21 [Compound 7],< 100,–,< 100,< 100,< 100,< 100,IC50 (PC3; [5]): < 100 nM
Nc1nc2cc(-c3ccc4ncc(N5CCNC(=O)C5)cc4n3)ccc2o1 [Compound 580],–,–,–,–,–,–,"IC50 (PI3K α (p110α/p85α); [2]): < 100 nM; IC50 (PI3K β (p110β/p85α); [3]): < 1000 nM; IC50 (PI3K γ (p110γ); [4]): < 100 nM; IC50 (PI3K δ; Table 4 (PI3K α inhibitors)): < 10000 nM; IC50 (MDA-MB-361; Homo sapiens, MDA-MB-361, Table 4 (PI3K α inhibitors), MDA-MB-361, read-out: MDA-MB-361 proliferation (nM)*): < 1000 nM"
Nc1nc2cc(-c3ccc4ncc(-c5ccc6nc(N)oc6c5)n4c3)ccc2o1 [Compound 50],< 10000,< 10000,> 10000,< 100,< 100,–,–
CC(=O)Nc1nc2ccc(-c3ccc4nccc(-c5ccncc5)c4c3)cc2s1 [Compound 2],> 10000,–,> 10000,< 1000,< 1000,> 10000,IC50 (PC3; [5]): < 10000 nM
Nc1nc2cc(-c3ccc4ncc(-c5ccncc5)n4n3)ccc2o1 [Compound 10],–,< 1000,< 1000,< 100,< 100,< 1000,IC50 (PC3; [5]): < 1000 nM
Nc1nc2cc(-c3ccc4ncn(-c5ccccc5)c4c3)ccc2o1 [Compound 11],–,–,> 10000,< 100,–,< 10000,IC50 (PC3; [5]): > 10000 nM
CC(C)n1nc(-c2cc3ccc(C#N)cc3[nH]2)c2c(N)ncnc21 [Compound 24],–,–,–,–,–,–,IC50 (PC3; [1]): > 500 nM
Nc1nc2cc(-c3ccc4ncc(C(=O)N5CCOCC5)n4c3)ccc2o1 [Compound 54],< 10000,< 10000,< 10000,–,–,< 10000,–
Nc1nc2cc(-c3ccc4ncc(C(=O)Nc5cccnc5)n4c3)ccc2o1 [Compound 190],< 1000,> 10000,–,< 100,< 100,> 10000,–
Nc1nc2cc(-c3ccc4ncc(N5CCOCC5)nc4c3)ccc2o1 [Compound 64],> 10000,< 10000,< 10000,< 100,< 100,< 1000,–
Cn1cc(-c2cnc3ccc(-c4ccc5oc(N)nc5c4)cn23)cn1 [Compound 41],< 1000,< 10000,< 10000,< 100,–,–,–
Nc1nc2cc(-c3ccc4ncc(-c5ccncc5)n4c3)ccc2o1 [Compound 6],< 1000,< 1000,< 10000,< 100,–,< 10000,IC50 (PC3; [5]): < 10000 nM
Cc1cn(-c2cnc3ccc(-c4ccc5oc(N)nc5c4)cc3n2)cn1 [Compound 177],> 10000,> 10000,–,< 100,< 1000,> 10000,–
Nc1nc2ccc(-c3ccc4nccc(-c5ccncc5)c4c3)cc2o1 [Compound 4],< 100,–,< 1000,< 100,–,< 100,IC50 (PC3; [5]): < 100 nM
Nc1noc2cc(-c3ccc4nccc(-c5ccncc5)c4c3)ccc12 [Compound 16],< 10000,< 1000,–,< 100,–,< 10000,–
CC1CN(c2cnc3ccc(-c4ccc5oc(N)nc5c4)cc3n2)CCN1 (stereo not drawn) [Compound 149],< 10000,> 10000,–,< 100,–,< 100,–
